Assay results as given in patent US20240246934A1, “QUINAZOLINE-BASED COMPOUND, COMPOSITION, AND APPLICATION OF QUINAZOLINE-BASED COMPOUND” (BEIJING SCITECH-MQ PHARMACEUTICALS LIMITED, priority 2021, published 2024).

Legend:
[1] = Pharmacokinetics in SD rats, single intravenous injection and oral administration; assay type: in vivo, SD rat
Method: In this assay, the pharmacokinetic characteristics of the compounds of the present application were assayed after administration of some of the compounds of the present application to SD rats by single oral administration and intravenous injection. 1. […] The mixture was stirred, vortexed and/or sonicated. Once a solution was obtained, the vehicle was gradually added to a final volume to reach the target concentration. The solution was vortexed, and sonicated to obtain a homogeneous solution. The solution was filtered through a 0.22 μm PVDF membrane. 2. […] The mixture was stirred, vortexed and/or sonicated. Once a solution was obtained, the vehicle was gradually added to a final volume to reach the target concentration. The solution was vortexed, and sonicated to obtain a homogeneous solution. […] Meanwhile, the IV group was not fasted and the PO group was fasted overnight (>12 hrs) and given food 2 hrs after drug administration. All animals had free access to water. The dosing regimen and pharmacokinetic sampling regimen are given in Table 6 and Table 7 below, respectively. […] Rats were administered according to the above regimen, and blood and brain tissue samples were collected and processed at predetermined time points (collection and processing were performed according to conventional methods in the art). […] The supernatant was diluted 2-fold with ultra-pure water, and the samples were analyzed by LC/MS. Pharmacokinetic parameters was calculated using WinNonlin software. The following pharmacokinetic parameters was calculated from the plasma drug concentration-time data: CL (clearance); Vd (apparent volume of distribution); T1/2 (elimination half-life time); Cmax (peak concentration); Tmax (time to peak); AUC (area under plasma drug concentration-time curve); MRT (mean retention time); F % (bioavailability).

EGFR^WT kinase = EGFR^WT kinase (Homo sapiens, UniProt P00533); experiment: EGFR^WT kinase assay (ULight/PT66 TR-FRET); assay type: biochemical
Method: (§1) Preparation of compound solution: The assay compound was dissolved in DMSO to form a 10 mM stock solution. Prior to use, the compound was diluted to 0.25 mM in DMSO (100 times the final concentration of the diluent) and then subjected to a 3-fold concentration gradient dilution to obtain a total of 11 concentrations. The solution was diluted with buffer to a diluent with 4× the final concentration when the compound was added.
(§2) EGFR^WT kinase assay: buffer was prepared, and 3.48 nM 4×EGFR kinase solution, 600 μM 4×ATP solution, and 400 nM 4×ULight™-labeled JAK-1 (Try1023) Peptide substrate solution were prepared using the buffer. After the preparation was completed, the enzyme was mixed with different concentrations of compounds pre-prepared by dilution, and the mixture was left to stand at room temperature for 5 min. Each concentration was performed in duplicate. The corresponding substrate and ATP were added and the mixture was reacted at room temperature for 120 minutes (with negative and positive controls). After completion of the reaction, PT66 detection antibody was added. The mixture was incubated at room temperature for 60 minutes, and then detected by Envision.
(§3) Compound concentrations and corresponding inhibition rates were input into GraphPad Prism for processing to calculate IC50 values.

[2] = molecular target: Ba/F3 HER2 A775_G776insYVMA cells (Homo sapiens, UniProt P04626, DUP772-775, cells depend on it); experiment: Inhibition of cell proliferation, CTG method, Ba/F3 HER2 A775_G776insYVMA; assay type: cell-based; conditions: 72 hours, read-out: Ba/F3 HER2 A775-G776insYVMA IC50
Excerpt: The present application examined the in vitro anti-proliferative activity of the compounds of the present disclosure against in vitro cultured BT474, NCI-N87, Ba/F3-EGFR-VIII and Ba/F3 HER2 A775_G776insYVMA and Ba/F3 EGFR D770_N771insSVD cell lines by CTG method.
Cell lines: BT474 (from the cell bank of Chinese Academy of Sciences), NCI-N87 (from ATCC), Ba/F3-EGFR-VIII, Ba/F3 HER2 A775_G776insYVMA and Ba/F3 EGFR D770_N771insSVD (all from KYinno Biotechnology (Beijing) Co., Ltd.); all of the above cells were cultured with RPMI1640 medium containing 10% fetal bovine serum, 100 U/mL penicillin, and 100 μg/mL streptomycin in the culture process.
1. The assay compound was dissolved with DMSO to form a stock solution and a gradient dilution was performed, followed by dilution with the corresponding medium to obtain a solution with 5-fold working concentration.
2. Cells in logarithmic growth phase were adjusted to specific cell densities by dilution with culture medium, and 80 μL of cell suspension was added to a 96-well plate, such that plating densities of cells of BT474, NCI-N87, Ba/F3-EGFR-VIII, Ba/F3 HER2 A775_G776insYVMA and Ba/F3 EGFR D770_N771insSVD were all 3000 cells/well. The cells of Ba/F3-EGFR-VIII, Ba/F3 HER2 A775_G776insYVMA and Ba/F3 EGFR D770_N771insSVD were used directly in the next step (treatment with compound), whereas the BT474 and NCI-N87 needed to be cultured overnight in a 37° C., 5% carbon dioxide gas incubator to adhere to the wall, and then treated with compounds.
3. […] The highest concentration of the assayed compound was 10 μM, 4-fold serial dilution, a total of 9 concentrations, and duplicate wells. A control group without compound was also set up.
4. The cells were cultured for another 72 hours, and then cell viability was detected by CTG assay kit. Signal values were read with a multifunctional plate reader (Perkin Elmer). GraphPad Prism software was used to create a dose-response curve and IC50 was calculated.

HER2 kinase = molecular target: T1, HER2 kinase (Homo sapiens, UniProt P04626); experiment: HER2 kinase assay (ULight/PT66 TR-FRET); assay type: biochemical
T1 construct: purchased Carna Biosciences 08-016
Method: as §1
as §2, with “HER2” for “EGFR^WT”, “40” for “3.48”, “4×Her2” for “4×EGFR”, “40” for “600”, “Ploy GT” for “JAK-1 (Try1023)”
as §3

[3] = SD, rat, whole blood, IV 3 mg/kg

Chain of EGFR^WT kinase (P00533 25-1210): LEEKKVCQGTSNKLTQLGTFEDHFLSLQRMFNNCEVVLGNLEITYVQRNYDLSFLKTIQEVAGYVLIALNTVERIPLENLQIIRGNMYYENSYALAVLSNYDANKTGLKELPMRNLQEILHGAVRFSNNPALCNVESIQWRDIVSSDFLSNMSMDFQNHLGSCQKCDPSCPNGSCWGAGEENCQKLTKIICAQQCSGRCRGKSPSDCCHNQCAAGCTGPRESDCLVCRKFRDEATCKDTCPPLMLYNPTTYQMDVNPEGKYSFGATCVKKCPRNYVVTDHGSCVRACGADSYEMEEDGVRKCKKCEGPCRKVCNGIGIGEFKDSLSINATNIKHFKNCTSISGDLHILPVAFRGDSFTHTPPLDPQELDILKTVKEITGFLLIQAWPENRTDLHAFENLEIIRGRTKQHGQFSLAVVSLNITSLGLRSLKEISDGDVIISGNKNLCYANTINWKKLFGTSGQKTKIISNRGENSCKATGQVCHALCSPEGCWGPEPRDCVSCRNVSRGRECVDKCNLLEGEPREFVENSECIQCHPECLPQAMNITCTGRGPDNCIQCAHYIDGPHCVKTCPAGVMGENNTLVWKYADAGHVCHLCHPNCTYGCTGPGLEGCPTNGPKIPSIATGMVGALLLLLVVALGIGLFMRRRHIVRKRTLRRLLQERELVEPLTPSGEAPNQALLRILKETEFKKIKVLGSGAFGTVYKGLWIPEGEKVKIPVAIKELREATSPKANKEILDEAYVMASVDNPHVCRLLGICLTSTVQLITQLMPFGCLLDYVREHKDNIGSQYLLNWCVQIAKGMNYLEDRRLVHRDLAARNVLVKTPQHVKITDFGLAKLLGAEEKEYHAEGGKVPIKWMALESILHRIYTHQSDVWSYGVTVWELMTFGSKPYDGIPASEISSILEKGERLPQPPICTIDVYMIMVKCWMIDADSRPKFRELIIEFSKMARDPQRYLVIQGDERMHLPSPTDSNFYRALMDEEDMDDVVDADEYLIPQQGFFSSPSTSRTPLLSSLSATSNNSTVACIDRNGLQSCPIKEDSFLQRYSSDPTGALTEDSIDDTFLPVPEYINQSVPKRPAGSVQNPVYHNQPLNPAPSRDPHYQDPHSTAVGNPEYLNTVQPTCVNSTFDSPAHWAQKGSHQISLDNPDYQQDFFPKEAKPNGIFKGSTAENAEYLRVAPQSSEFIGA
Chain of Ba/F3 HER2 A775_G776insYVMA cells (P04626 with tags, fused parts or gaps DUP772-775): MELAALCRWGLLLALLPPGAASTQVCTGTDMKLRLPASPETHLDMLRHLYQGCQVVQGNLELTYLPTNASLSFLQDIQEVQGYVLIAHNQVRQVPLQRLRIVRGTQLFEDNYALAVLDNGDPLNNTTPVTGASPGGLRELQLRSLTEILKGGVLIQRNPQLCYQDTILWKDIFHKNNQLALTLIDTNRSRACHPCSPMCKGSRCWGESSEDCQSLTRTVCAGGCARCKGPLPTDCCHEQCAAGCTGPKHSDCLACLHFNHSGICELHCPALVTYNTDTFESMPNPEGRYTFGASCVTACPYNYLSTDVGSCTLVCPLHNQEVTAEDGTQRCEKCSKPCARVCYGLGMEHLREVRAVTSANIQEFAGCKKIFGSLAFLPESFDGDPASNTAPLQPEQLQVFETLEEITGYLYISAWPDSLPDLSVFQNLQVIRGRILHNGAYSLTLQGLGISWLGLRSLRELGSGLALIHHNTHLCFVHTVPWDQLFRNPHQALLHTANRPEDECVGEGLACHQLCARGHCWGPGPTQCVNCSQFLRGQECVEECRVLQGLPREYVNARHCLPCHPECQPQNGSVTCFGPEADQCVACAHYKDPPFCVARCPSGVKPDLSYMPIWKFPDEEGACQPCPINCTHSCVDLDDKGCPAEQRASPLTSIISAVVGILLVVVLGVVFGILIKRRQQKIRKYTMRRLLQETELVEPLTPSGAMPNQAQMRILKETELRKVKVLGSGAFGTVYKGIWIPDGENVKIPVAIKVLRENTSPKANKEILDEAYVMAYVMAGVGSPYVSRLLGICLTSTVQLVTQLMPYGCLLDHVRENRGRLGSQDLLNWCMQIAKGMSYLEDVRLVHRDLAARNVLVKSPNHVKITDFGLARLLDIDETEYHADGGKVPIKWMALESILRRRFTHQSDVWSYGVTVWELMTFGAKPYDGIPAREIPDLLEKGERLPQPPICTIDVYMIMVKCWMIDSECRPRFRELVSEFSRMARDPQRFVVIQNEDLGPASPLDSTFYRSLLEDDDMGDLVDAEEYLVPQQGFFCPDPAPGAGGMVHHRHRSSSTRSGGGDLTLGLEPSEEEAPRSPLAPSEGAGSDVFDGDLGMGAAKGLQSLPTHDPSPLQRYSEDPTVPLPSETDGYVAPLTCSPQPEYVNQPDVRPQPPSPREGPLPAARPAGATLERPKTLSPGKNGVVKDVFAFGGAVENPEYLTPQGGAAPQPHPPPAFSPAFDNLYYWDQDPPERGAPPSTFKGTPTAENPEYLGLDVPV
T1 sequence (P04626 23-1255): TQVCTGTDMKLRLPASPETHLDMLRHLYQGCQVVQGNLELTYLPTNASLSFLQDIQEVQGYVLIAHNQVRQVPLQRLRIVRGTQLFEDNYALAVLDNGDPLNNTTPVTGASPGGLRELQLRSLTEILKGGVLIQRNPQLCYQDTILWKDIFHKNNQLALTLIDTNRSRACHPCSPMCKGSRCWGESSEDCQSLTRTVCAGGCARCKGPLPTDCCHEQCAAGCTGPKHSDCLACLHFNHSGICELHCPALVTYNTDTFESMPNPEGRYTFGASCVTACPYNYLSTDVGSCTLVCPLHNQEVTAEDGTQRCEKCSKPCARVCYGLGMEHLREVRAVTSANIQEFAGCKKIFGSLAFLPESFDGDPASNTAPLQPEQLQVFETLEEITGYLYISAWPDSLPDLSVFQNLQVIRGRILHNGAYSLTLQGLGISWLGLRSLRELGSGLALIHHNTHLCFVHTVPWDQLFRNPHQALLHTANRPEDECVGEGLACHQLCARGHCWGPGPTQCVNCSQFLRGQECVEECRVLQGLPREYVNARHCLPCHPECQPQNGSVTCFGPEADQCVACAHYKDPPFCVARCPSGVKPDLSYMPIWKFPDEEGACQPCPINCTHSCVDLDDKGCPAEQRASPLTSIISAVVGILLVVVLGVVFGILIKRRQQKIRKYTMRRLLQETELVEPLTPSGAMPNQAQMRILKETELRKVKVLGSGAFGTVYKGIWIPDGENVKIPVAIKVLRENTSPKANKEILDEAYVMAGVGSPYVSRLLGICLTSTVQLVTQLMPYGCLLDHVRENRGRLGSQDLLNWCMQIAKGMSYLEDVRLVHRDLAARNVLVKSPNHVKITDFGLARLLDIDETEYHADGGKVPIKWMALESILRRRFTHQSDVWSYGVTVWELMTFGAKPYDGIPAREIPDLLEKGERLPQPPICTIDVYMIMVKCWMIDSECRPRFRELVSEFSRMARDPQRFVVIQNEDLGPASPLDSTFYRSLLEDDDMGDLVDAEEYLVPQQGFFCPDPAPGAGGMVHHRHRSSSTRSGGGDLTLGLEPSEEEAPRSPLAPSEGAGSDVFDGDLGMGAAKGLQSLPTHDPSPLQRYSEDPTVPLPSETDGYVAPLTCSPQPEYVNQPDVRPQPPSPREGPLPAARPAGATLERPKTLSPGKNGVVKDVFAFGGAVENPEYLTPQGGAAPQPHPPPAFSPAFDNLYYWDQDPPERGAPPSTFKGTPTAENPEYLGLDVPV

Structure (SMILES) | IC50 (EGFR^WT kinase) [nM] | GI50 [2] [nM] | IC50 (HER2 kinase) [nM] | also measured
CN1CCC[C@@H]1/C=C/C(=O)Nc1ccc2ncnc(Nc3ccc(OCc4ccccn4)c(Cl)c3)c2c1 [Control compound 1, reference compound] |  |  |  | Cl_obs ([1]; IV 3 mg/kg): 72.7 ± 7.1 mL/min/kg; AUC(0-inf) [1, 3]: 693 ± 72 ng·h/mL; AUC(0-t) [1, 3]: 678 ± 74 ng·h/mL; Vd [1, 3]: 31 ± 4.6 L/kg; half-life [1, 3]: 4.91 ± 0.28 h; oral absorption (in words) ([1]; administrated orally): hardly absorbed
COc1c(NC(=O)/C=C/CN(C)C2CCC2)ccc2ncnc(Nc3ccc(OCc4ccccn4)c(Cl)c3)c12 [Example 3, (E)-N-(4-((3-chloro-4-(pyridin-2-ylmethoxy)phenyl)amino)-5-methoxyquinazolin-6-yl)-4-(cyclobutyl(methyl)amino)but-2-enamide] | < 10 | 1 to 5 | < 10 | 
CN1CCC[C@@H]1/C=C/C(=O)Nc1ccc2ncnc(Nc3ccc(OCc4ccccn4)c(Cl)c3)c2c1OCCF [Example 7, (R,E)-N-(4-((3-chloro-4-(pyridin-2-ylmethoxy)phenyl)amino)-5-(2-fluoroethoxy)quinazolin-6-yl)-3-(1-methylpyrrolidin-2-yl)acrylamide] | < 10 | 1 to 5 | < 10 | 
CN1CCC[C@@H]1/C=C/C(=O)Nc1ccc2ncnc(Nc3ccc(OCc4ccccn4)c(Cl)c3)c2c1OCCC(F)(F)F [Example 12, (R,E)-N-(4-((3-chloro-4-(pyridin-2-ylmethoxy)phenyl)amino)-5-(3,3,3-trifluoropropoxy)quinazolin-6-yl)-3-(1-methylpyrrolidin-2-yl)acrylamide] | < 10 | 1 to 5 | < 10 | 
CC(C)COc1c(NC(=O)/C=C/[C@H]2CCCN2C)ccc2ncnc(Nc3ccc(OCc4ccccn4)c(Cl)c3)c12 [Example 14, (R,E)-N-(4-((3-chloro-4-(pyridin-2-ylmethoxy)phenyl)amino)-5-isobutoxyquinazolin-6-yl)-3-(1-methylpyrrolidin-2-yl)acrylamide] | < 10 | 1 to 5 | < 10 | 
CN1CCC[C@@H]1/C=C/C(=O)Nc1ccc2ncnc(Nc3ccc(OCc4ccccn4)c(Cl)c3)c2c1OCCC(C)(C)O [Example 16, (R,E)-N-(4-((3-chloro-4-(pyridin-2-ylmethoxy)phenyl)amino)-5-(3-hydroxy-3-methylbutoxy)quinazolin-6-yl)-3-(1-methylpyrrolidin-2-yl)acrylamide] | < 10 | 1 to 5 | < 10 | 
COc1c(NC(=O)/C=C/[C@H]2CCCN2C(C)C)ccc2ncnc(Nc3ccc(OCc4cccc(F)c4)c(Cl)c3)c12 [Example 18, (R,E)-N-(4-((3-chloro-4-(3-fluorobenzyloxy)phenyl)amino)-5-methoxyquinazolin-6-yl)-3-(1-isopropylpyrrolidine-2-yl)acrylamide] | < 10 | 1 to 5 | < 10 | 
CCOc1c(NC(=O)/C=C/[C@H]2CCCN2CC)ccc2ncnc(Nc3ccc(OCc4cccc(F)c4)c(Cl)c3)c12 [Example 19, (R,E)-N-(4-((3-chloro-4-(3-fluorobenzyloxy)phenyl)amino)-5-ethoxyquinazolin-6-yl)-3-(1-ethylpyrrolidin-2-yl)acrylamide] | < 10 | 1 to 5 | < 10 | 
CCOc1c(NC(=O)/C=C/[C@H]2CCCN2CC)ccc2ncnc(Nc3ccc(OCc4ccccn4)c(Cl)c3)c12 [Example 20, (R,E)-N-(4-((3-chloro-4-(pyridin-2-ylmethoxy)phenyl)amino)-5-ethoxyquinazolin-6-yl)-3-(1-ethylpyrrolidin-2-yl)acrylamide] | < 10 | 1 to 5 | < 10 | 
CCOc1c(NC(=O)/C=C/[C@H]2CCCN2C)ccc2ncnc(Nc3ccc(OCc4ccccn4)c(F)c3)c12 [Example 21, (R,E)-N-(5-ethoxy-4-((3-fluoro-4-(pyridin-2-ylmethoxy)phenyl)amino)quinazolin-6-yl)-3-(1-methylpyrrolidine-2-yl)acrylamide] | < 10 | 1 to 5 | < 10 | 
COCCCCOc1c(NC(=O)/C=C/[C@H]2CCCN2C)ccc2ncnc(Nc3ccc(OCc4ccccn4)c(Cl)c3)c12 [Example 23, (R,E)-N-(4-((3-chloro-4-(pyridin-2-ylmethoxy)phenyl)amino)-5-(4-methoxybutoxy)quinazolin-6-yl)-3-(1-methylpyrrolidin-2-yl)acrylamide] | 100 to 1000 | 1 to 5 | < 10 | 

More lines, main results first:

IC50 (EGFR^WT kinase) [nM] | GI50 [2] [nM] | IC50 (HER2 kinase) [nM] | Structure (SMILES) | also measured
< 10 | 1 to 5 | < 10 | CCOc1c(NC(=O)/C=C/[C@H]2CCCN2C)ccc2ncnc(Nc3ccc(OCc4cccc(C)n4)c(Cl)c3)c12 [Example 22, (R,E)-N-(4-((3-chloro-4-((6-methylpyridin-2-yl)methoxy)phenyl)amino)-5-ethoxyquinazolin-6-yl)-3-(1-methylpyrrolidin-2-yl)acrylamide] | 
 | 1 to 5 | < 10 | CN1CCC[C@@H]1/C=C/C(=O)Nc1ccc2ncnc(Nc3ccc(OCc4cccc(F)c4)c(Cl)c3)c2c1OC1CC1 [Example 41, (R,E)-N-(4-((3-chloro-4-((3-fluorobenzyl)oxy)phenyl)amino)-5-cyclopropoxyquinazolin-6-yl)-3-(1-methylpyrrolidone-2-yl)acrylamide] | 
100 to 1000 |  | < 10 | COc1c(NC(=O)/C=C/[C@H]2CCCN2C2CCC2)ccc2ncnc(Nc3ccc(OCc4ccccn4)c(Cl)c3)c12 [Example 42, (R,E)-N-(4-((3-chloro-4-(pyridin-2-ylmethoxy)phenyl)amino)-5-methoxyquinazolin-6-yl)-3-(1-cyclobutylpyrrolidin-2-yl)acrylamide] | 
 |  | < 10 | COc1c(NC(=O)/C=C/CN2CCCC2)ccc2ncnc(Nc3ccc(OCc4ccccn4)c(Cl)c3)c12 [Example 43, (E)-N-(4-((3-chloro-4-(pyridin-2-ylmethoxy)phenyl)amino)-5-methoxyquinazolin-6-yl)-4-(pyrrolidine-1-yl)but-2-enamide] | 
 |  | < 10 | COc1c(NC(=O)/C=C/CN2CCCCC2)ccc2ncnc(Nc3ccc(OCc4ccccn4)c(Cl)c3)c12 [Example 44, (E)-N-(4-((3-chloro-4-(pyridin-2-ylmethoxy)phenyl)amino)-5-methoxyquinazolin-6-yl)-4-(piperidin-1-yl)but-2-enamide] | 
